As a reminder, the viability is a read-out of living cells in per cent, often relative to untreated cells.

The values that follow come from paper PMC12040169 (PLOS Biology, 2025).

This data set is described as follows: in vitro. The following applies: human, hela cells, % viability.
In the case of `NS(=O)(=O)c1ccc(NC(=S)NNS(=O)(=O)c2ccc(Br)cc2)cc1` [CBK266928], the viability at 28.5 h, 10 µM stood at 111%.

On to `Cc1cc(C)n(CC(=O)NCCCc2ccc(Cl)cc2)c(=O)n1` [CBK281561], for which the viability at 28.5 h, 10 µM was 96.3%.

For `CCOC(=O)C1(C2CCCCC2)CCN(C(=O)Cc2ccc(Cl)c(Cl)c2)CC1` [CBK136922], the viability at 28.5 h, 10 µM worked out at 95.2%.

For `COc1ccc(-c2cc(C(=O)NCCc3c[nH]cn3)cnc2-c2ccc(F)cc2)cn1` [CBK036675], the viability at 28.5 h, 10 µM was found to be 112%.

In the case of `CCOC(=O)C1CCCN(CCC(=O)Nc2ccccc2)C1` (stereo not drawn) [CBK264192C], the viability at 28.5 h, 10 µM is 91.7%.

`COc1ccnc(N2CCN(Cc3cncn3C3CCCCC3)CC2)n1` [CBK306925]: the viability at 28.5 h, 10 µM was found to be 98.1%.

Regarding `Cc1ccc(S(=O)(=O)NCC2CCC(C(=O)Oc3ccc4ccc(=O)oc4c3)CC2)cc1` (stereo not drawn) [CBK093519], the viability at 28.5 h, 10 µM turned out to be 87.9%.

Regarding `CCOCCN1C[C@@H](C(F)(F)F)[C@H](C(=O)O)C1` [CBK287033], the viability at 28.5 h, 10 µM was 91.9%.

In the case of `Oc1ccc2[nH]cc(CCNC(c3ccccc3)(c3ccccc3)c3ccccc3)c2c1` [CBK260891], the viability at 28.5 h, 10 µM came to 103%.

On to `CN(C(=O)c1c[nH]nc1-c1ccc(CNC(=O)Cc2ccc(F)cc2)cc1)c1ccccc1` [CBK285599], for which the viability at 28.5 h, 10 µM was determined as 95.9%.

As for `O=C(O)CCC(=O)Nc1ccc(Oc2ccccc2)cc1` [CBK286957], the viability at 28.5 h, 10 µM is 88.9%.

Regarding `Cc1onc(-c2ccccc2Cl)c1C(=O)Nc1ccc(S(=O)(=O)N2CCC(C)CC2)cc1` [CBK265463], the viability at 28.5 h, 10 µM turned out to be 107%.

With `CCn1c(CN2CCC(n3nc(C)cc3C)CC2)nc2ccccc21` [CBK281615], the viability at 28.5 h, 10 µM stood at 88.5%.

`Cc1ccc(S(=O)(=O)Nc2nc(C)c(C(=O)N3CCN(C)CC3)s2)cc1` [CBK045812]: the viability at 28.5 h, 10 µM is 88.3%.

On to `O=C(c1ccco1)N1CCN(c2cncc(-c3cccs3)n2)CC1` [CBK065518], for which the viability at 28.5 h, 10 µM was found to be 114%.

Take `CCOC(=O)C1(Cc2cc(-c3ccccc3F)no2)CCNCC1` [CBK284580]: the viability at 28.5 h, 10 µM is 101%.

Regarding `CCc1ccc2c(c1)C(CCNC(=O)c1ncoc1C(F)(F)F)C(=O)N2` (stereo not drawn) [CBK304725], the viability at 28.5 h, 10 µM was 99.4%.

On to `Cn1nccc1C(=O)NC(Cc1cccs1)c1ccccn1` (stereo not drawn) [CBK285207], for which the viability at 28.5 h, 10 µM was 96.1%.

Regarding `CCc1nc2c(OCc3ccccc3)cccn2c1N(C)C(=O)c1ccncc1` [CBK147876], the viability at 28.5 h, 10 µM stood at 90%.

Consider `O=C(Nc1ccccc1Cl)C1CCCN1S(=O)(=O)c1ccc(F)cc1` (stereo not drawn) [CBK110161], for which the viability at 28.5 h, 10 µM was 89.1%.

As to `Cc1cc(C(=O)NCCCn2ccnc2)no1` [CBK268145], the viability at 28.5 h, 10 µM stood at 103%.

For the compound `CC(=O)Nc1ccc(S(=O)(=O)Nc2ccc(S(=O)(=O)Nc3cc(C)ccc3C)cc2)cc1` [CBK264745], the viability at 28.5 h, 10 µM is 98.4%.

Regarding `Cn1ncc2c1CCCN(C(=O)COc1ccc(C(C)(C)C)cc1)C2` [CBK285286], the viability at 28.5 h, 10 µM came out at 115%.

As to `CC(C)c1noc(NCc2nnc3n2CCCCC3)n1` [CBK306352], the viability at 28.5 h, 10 µM stood at 113%.

Turning to `N#CCCn1cc(C(=O)N2CCOCC2)c(-c2ccccc2)n1` [CBK306207], the viability at 28.5 h, 10 µM was determined as 86%.

In the case of `Cc1nn(C)cc1-c1cncn1CCCN1CCCCC1` [CBK281493], the viability at 28.5 h, 10 µM came out at 96%.

With `O=C1NCCc2c1[nH]c1ccc(Cl)cc21` [CBK015755], the viability at 28.5 h, 10 µM is 38.9%.

As to `CC(Oc1ccc(S(=O)(=O)N2CCN(C)CC2)cc1)C(=O)NC1CCCCC1` (stereo not drawn) [CBK269943], the viability at 28.5 h, 10 µM turned out to be 97.9%.

For the compound `Cc1ccc(C)c(NC(=O)CC2C(=O)N(c3ccccc3)C(=S)N2Cc2ccco2)c1` (stereo not drawn) [CBK267119], the viability at 28.5 h, 10 µM amounted to 94.3%.

For `CN1CCN(c2nc(-c3cccc(F)c3)cnc2N)CC1` [CBK063433], the viability at 28.5 h, 10 µM amounted to 100%.

For the compound `O=c1c2ccccc2nc2c3ccccc3c(NCc3ccccn3)nn12` [CBK265964], the viability at 28.5 h, 10 µM amounted to 89.3%.

Regarding `O=c1cc(CN2CCc3ccccc3C2)[nH]c(=O)[nH]1` [CBK126401], the viability at 28.5 h, 10 µM was found to be 94%.

With `CN(CCN1CCCCC1)C(=O)c1cc2ccc(N(C)C)cc2[nH]1` [CBK281830], the viability at 28.5 h, 10 µM turned out to be 107%.

Consider `CCc1cccc(C)c1NC(=O)CSc1nnc(-c2cccnc2)n1C` [CBK267582], for which the viability at 28.5 h, 10 µM was 88.4%.

Regarding `Cc1ccc(NS(=O)(=O)c2cccs2)cc1` [CBK045362], the viability at 28.5 h, 10 µM turned out to be 64%.

On to `CC(C)OC(=O)N1CCC(C(=O)NC(c2ccccc2)c2ccc3ccccc3n2)CC1` (stereo not drawn) [CBK059642], for which the viability at 28.5 h, 10 µM was 106%.

For `C[C@H](c1ccccc1)n1c(=O)[nH]c2ncc(-c3ccc(N(C)C)cc3)nc21` [CBK064367], the viability at 28.5 h, 10 µM is 102%.

On to `Cc1cc(C)n(C(C)CC(=O)NCc2ccccc2-n2ccnc2)n1` (stereo not drawn) [CBK281518], for which the viability at 28.5 h, 10 µM stood at 84.3%.

As to `CC1=NN(C(=O)NS(=O)(=O)c2ccccc2Cl)C(C)(C)C1` [CBK018947], the viability at 28.5 h, 10 µM is 120%.

Turning to `O=C1CCC(C(=O)O)(c2ccccc2)N1c1ccccc1` (stereo not drawn) [CBK116358], the viability at 28.5 h, 10 µM came to 94.8%.

Take `O=C(CCS(=O)(=O)c1ccccc1)Nc1cc2ccccc2c(N2CCNCC2)n1` [CBK028419T]: the viability at 28.5 h, 10 µM was determined as 88.1%.

Take `CCCn1ncc(C(=O)NC(C)c2c(C)nn(CC)c2C)c1C` (stereo not drawn) [CBK281532]: the viability at 28.5 h, 10 µM was found to be 85.5%.

In the case of `Cc1cc(C)c2c(c1)C1(C(=O)N2)C(C#N)=C(N)Oc2[nH]nc(-c3ccccc3)c21` (stereo not drawn) [CBK267367], the viability at 28.5 h, 10 µM was found to be 100%.

On to `COC[C@H]1CCCN1C(=O)CC[C@H]1CNC(=O)[C@@H]2[C@@H](CCN2C(C)C)N1C` [CBK289038], for which the viability at 28.5 h, 10 µM was determined as 103%.

As to `CC(C)CC1C(=O)NCCN1Cc1ccccc1` (stereo not drawn) [CBK005336], the viability at 28.5 h, 10 µM was 92%.

On to `C/C=C/c1ccc(OCCCSc2ccc(Cl)cc2)c(OC)c1` [CBK264147], for which the viability at 28.5 h, 10 µM amounted to 97.5%.

As to `O=C(O)CCCn1cc(NC(=O)Cc2ccccc2)cn1` [CBK269821], the viability at 28.5 h, 10 µM worked out at 93.9%.

In the case of `COc1ccc2c(ccn2CC(=O)NC[C@H]2CC[C@H](C(=O)O)CC2)c1` [CBK286687], the viability at 28.5 h, 10 µM amounted to 110%.

For the compound `CCC(=O)NCCc1cc2ccc(C)cc2[nH]c1=O` [CBK287434], the viability at 28.5 h, 10 µM was 92.4%.

Consider `O=C(CCc1ccc(S(=O)(=O)NC2CC2)cc1)N1CCCC1c1ccncc1` (stereo not drawn) [CBK296673], for which the viability at 28.5 h, 10 µM was 106%.

For the compound `Cc1ccc(C2=NN(C(=O)CCC(=O)O)C(c3cc4cccc(C)c4[nH]c3=O)C2)cc1` (stereo not drawn) [CBK296927], the viability at 28.5 h, 10 µM turned out to be 91%.

As to `COCC(=O)N1CCN2C(=O)c3ccccc3NC(=O)[C@@H]2C1` [CBK289582], the viability at 28.5 h, 10 µM is 90.6%.

As to `Cc1csc(NC(=O)c2ncoc2-c2cccs2)n1` [CBK283972], the viability at 28.5 h, 10 µM came out at 88.2%.

As to `CCC1(CC)OC(NC2CCCc3ccccc32)=NC1=O` (stereo not drawn) [CBK126555], the viability at 28.5 h, 10 µM was determined as 99.1%.

`Cc1ccc(NC(=O)C2CCCN2S(=O)(=O)c2ccc(F)cc2)cc1F` (stereo not drawn) [CBK110164]: the viability at 28.5 h, 10 µM is 91.6%.

In the case of `CCCCNC(=O)c1ccc2c(c1)NC(=O)C(N1CCCC1)S2` (stereo not drawn) [CBK071762], the viability at 28.5 h, 10 µM worked out at 98.4%.

For the compound `CN(C)C(=O)c1ccc(-c2ccc3c(c2)COC(C2CCN(C(=O)CC(C)(C)c4ccccc4)CC2)O3)cc1` (stereo not drawn) [CBK149765], the viability at 28.5 h, 10 µM was determined as 107%.
